Source: patent publication US8389730B2, “Compositions and methods for the treatment of disease associated with TRP-P8 expression” (Dendreon Corporation, priority 2003, dated 2013)

Biological target: T1, Trp-p8 (Homo sapiens, UniProt Q7Z2W7, T58I)
T1 construct: expressed in transfected cells
Assay: Cell viability (ATP) assay for Trp-p8 antagonists: protection of CHO/Trp-p8 cells from toxic control agonist D-1607
Assay type: cell-based
Conditions: 37° C., ATP level relative to DMSO; for Rel. Viab. (%) at 10 μM: Table 3, Formula VII antagonists, 10 μM compound plus toxic concentration of control agonist, CHO/Trp-p8 cells; for Relative Viability (%) at 10 μM: Table 2, Formula VIII antagonists, 10 μM compound plus toxic concentration of control agonist D-1607, CHO/Trp-p8 cells
Method: FIG. 4 is a graph depicting exemplary results from a primary screen for Trp-p8 antagonists using the ATP viability assay, described herein, with CHO/Trp-p8 cells at 37° C. CHO/Trp-p8 cells were exposed to compounds, at different concentrations, in 1% DMSO or 1% DMSO in combination with a toxic concentration of the Trp-p8 agonist 1607. The viability of cells was measured after 24-26 hours at 37° C. using the ATP assay.
As a primary screen for efficacy and specificity for agonists, both the non-transfected CHO and CHO/Trp-p8 cells were exposed to 10 μM of test compounds in 1% dimethylsulfoxide (DMSO) or 1% DMSO (control) in a 96-well black walled, black-bottomed, cell-culture treated plate. DMSO was the solvent for all of the compounds tested. After 24-26 hours at 37° C., the cells were lysed and ATP concentration determined via a chemiluminescence assay using a commercially available reagent kit—Cell Titer-Glo (Promega; Madison, Wis.). […] (EC50 is defined herein as the agonist concentration at which there is a 50% reduction in cell viability).
Trp-p8 antagonists were identified by employing a cell viability assay with CHO/Trp-p8 cells at 37° C. (see Example 7) with the following modification. Within the context of the present invention, compounds that protect CHO/Trp-p8 cells from the toxic effect of a control agonist thereby maintaining the viability of the CHO/Trp-p8 cell exposed to a Trp-p8 agonist is defined as antagonist. As a primary screen for antagonists, CHO/Trp-p8 cells were exposed to 10 μM of test compounds in 1% dimethylsulfoxide (DMSO) or 1% DMSO plus a toxic concentration of a control agonist, D-1607.

T1 sequence (Q7Z2W7 whole entry T58I): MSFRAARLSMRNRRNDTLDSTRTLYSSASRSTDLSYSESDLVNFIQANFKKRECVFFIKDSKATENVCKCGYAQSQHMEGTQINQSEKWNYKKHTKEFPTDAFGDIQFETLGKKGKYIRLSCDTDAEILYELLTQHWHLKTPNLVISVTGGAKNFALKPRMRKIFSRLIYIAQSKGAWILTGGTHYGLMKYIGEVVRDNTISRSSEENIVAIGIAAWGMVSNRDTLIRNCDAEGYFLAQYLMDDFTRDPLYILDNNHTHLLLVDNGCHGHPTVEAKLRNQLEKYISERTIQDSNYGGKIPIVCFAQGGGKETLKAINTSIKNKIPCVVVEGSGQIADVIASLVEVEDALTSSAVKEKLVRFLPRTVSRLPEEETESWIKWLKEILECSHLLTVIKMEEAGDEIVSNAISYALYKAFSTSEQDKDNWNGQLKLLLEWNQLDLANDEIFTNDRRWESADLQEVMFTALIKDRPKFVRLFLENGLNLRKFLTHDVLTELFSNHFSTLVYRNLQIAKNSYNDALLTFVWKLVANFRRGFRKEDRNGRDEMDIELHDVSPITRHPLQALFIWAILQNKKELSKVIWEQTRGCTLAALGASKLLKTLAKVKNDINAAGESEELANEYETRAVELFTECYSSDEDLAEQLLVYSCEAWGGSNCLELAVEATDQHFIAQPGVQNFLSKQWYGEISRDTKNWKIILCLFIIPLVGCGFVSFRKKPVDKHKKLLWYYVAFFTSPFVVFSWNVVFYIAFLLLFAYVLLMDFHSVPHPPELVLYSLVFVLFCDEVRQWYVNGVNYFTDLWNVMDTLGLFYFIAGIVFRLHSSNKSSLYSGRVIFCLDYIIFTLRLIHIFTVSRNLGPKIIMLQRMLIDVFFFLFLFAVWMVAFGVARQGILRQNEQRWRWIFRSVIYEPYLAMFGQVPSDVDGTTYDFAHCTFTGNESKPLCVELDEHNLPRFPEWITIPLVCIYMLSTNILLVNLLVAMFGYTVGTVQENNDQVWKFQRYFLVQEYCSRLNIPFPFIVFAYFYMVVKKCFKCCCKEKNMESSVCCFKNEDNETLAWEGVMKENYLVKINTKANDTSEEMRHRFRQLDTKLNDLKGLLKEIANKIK

Row | Structure (SMILES) | Rel. Viab. (%) at 10 μM | Relative Viability (%) at 10 μM
1 | COc1ccc(N2CCN(CC(O)COC3CC(C)CCC3C(C)C)CC2)cc1.Cl.Cl (centres unmarked) [compound 93] | 111% | 
2 | CCN(CCNC(=O)CO[C@@H]1C[C@H](C)CC[C@H]1C(C)C)c1cccc(C)c1 [compound 1937] |  | 101%
3 | CC(C)CN(CCNC(=O)CO[C@@H]1C[C@H](C)CC[C@H]1C(C)C)CC(C)C [compound 1920] |  | 81%
4 | Fc1ccc(N2CCN(c3ncnc4c3cnn4-c3ccccc3)CC2)cc1 [compound 159] | 95% | 
5 | CC(C)[C@@H]1CC[C@@H](C)C[C@H]1NCc1c[nH]nc1-c1ccccc1 [compound 2745] |  | 62%
6 | CC(C)[C@@H]1CC[C@@H](C)C[C@H]1OCC(=O)NCCC1=CCCCC1 [compound 1743] |  | 97%
7 | c1ccc(Cn2ncc3c(N4CCN(c5ccccn5)CC4)ncnc32)cc1 [compound 13] | 91% | 
8 | CCc1ccc(-c2n[nH]cc2CN[C@@H]2C[C@H](C)CC[C@H]2C(C)C)cc1 [compound 2754] |  | 74%
9 | CC(C)[C@@H]1CC[C@@H](C)C[C@H]1NC(=O)NC1CCCCCC1 [compound 1876] |  | 86%
10 | c1ccc(Cc2nc(N3CCN(c4ccccn4)CC3)c3c4c(sc3n2)CCCC4)cc1 [compound 1323] | 88% | 
11 | CC(C)[C@@H]1CC[C@@H](C)C[C@H]1OC(=O)N1c2ccccc2CC1C (some centres unmarked) [compound 1475] |  | 100%
12 | CC(Oc1ccccc1)C(=O)N[C@@H]1C[C@H](C)CC[C@H]1C(C)C (some centres unmarked) [compound 2018] |  | 103%
13 | Cc1nc2sc(C(c3ccc(Br)cc3)N3CCN(C(c4ccccc4)c4ccccc4)CC3)c(O)n2n1 (centres unmarked) [compound 1021] | 92% | 
14 | CC(C)[C@@H]1CC[C@@H](C)C[C@H]1NC(=O)COc1ccccc1[N+](=O)[O-] [compound 2045] |  | 191%
15 | CC(C)[C@@H]1CC[C@@H](C)C[C@H]1OCC(=O)N1CCCc2ccccc21 [compound 1696] |  | 82%
16 | CCCCOc1ccc(C(=O)N[C@@H]2C[C@H](C)CC[C@H]2C(C)C)cc1 [compound 2044] |  | 94%
17 | FC(F)(F)Oc1ccc(Nc2nc(N3CCCCCC3)nc(N3CCN(C45CC6CC(CC(C6)C4)C5)CC3)n2)cc1 [compound 809] | 89% | 
18 | O=C1CN(c2nc3ccccc3c(=O)n2Cc2ccccc2)CC(=O)N1CCc1ccccc1 [compound 1069] | 86% | 
19 | CC(C)[C@@H]1CC[C@@H](C)C[C@H]1NC(=O)SCc1ccccc1 [compound 2291] |  | 87%
20 | COc1ccc(C2c3[nH]c4ccccc4c3CCN2C(=O)[C@@H]2C[C@H](C)CC[C@H]2C(C)C)cc1CN1CCc2cc(OC)c(OC)cc2C1C (some centres unmarked) [compound 2676] |  | 83%
21 | O=[N+]([O-])c1cc(S(=O)(=O)C(F)(F)F)ccc1N1CCN(c2ccccc2)CC1 [compound 107] | 98% | 
22 | CC(C)[C@@H]1CC[C@@H](C)C[C@H]1OCC(=O)NCCc1cccs1 [compound 1925] |  | 94%
23 | CCCc1c(C(=O)N[C@@H]2C[C@H](C)CC[C@H]2C(C)C)cnn1-c1ccccc1 [compound 2067] |  | 105%
24 | COc1ccccc1NC(=O)CO[C@@H]1C[C@H](C)CC[C@H]1C(C)C [compound 1709] |  | 95%
25 | CC(C)[C@@H]1CC[C@@H](C)C[C@H]1OC(=O)N1CCCc2ccccc21 [compound 1465] |  | 90%
26 | CC(C)[C@@H]1CC[C@@H](C)C[C@H]1OCC(=O)NCc1ccccc1Cl [compound 1669] |  | 86%
27 | COc1ccccc1N1CCN(CC(O)COC2CC(C)CCC2C(C)C)CC1.Cl.Cl (centres unmarked) [compound 36] | 87% | 
28 | CC(C)[C@@H]1CC[C@@H](C)C[C@H]1NC(=O)NCCC1=CCCCC1 [compound 1883] |  | 84%
29 | CC(C)[C@@H]1CC[C@@H](C)C[C@H]1NC(=O)NCCN(Cc1ccccc1)C(C)C [compound 1885] |  | 97%
